Results reported in patent US9744211B2, “Uses of BT lipopeptides as therapeutics for obesity and related diseases” (MYGALAXY LIMITED COMPANY, priority 2012, dated 2017).

System: isolated chicken heterophils
Test: PMA-stimulated oxidative burst of heterophils in vitro (BT priming assay, with or without anti-TLR2 antibody blocking)
Format: cell-based
Conditions: Group 2: PMA stimulation only, no BT
Description: However, the in vitro priming assay provides a useful tool for probing possible signaling pathway involved in BT-mediated innate immunomodulation. Since TLRs are conserved receptors playing key roles in innate immunity (Farnell et al., 2003) and TLR2 is the only TLR that has lipopeptide agonists, the same in vitro BT priming assay (Kogut et al., 2012) was employed to investigate whether TLR2 can function as a receptor for BT lipopeptides.
Goat polyclonal antibodies raised against human TLR2 were purchased from Santa Cruz Biotechnology Lab (Santa Cruz, Calif.). For TLR2-blocking, isolated chicken heterophils and the antibodies (2.0 μg/ml) were incubated, prior to the treatments of BT and/or PMA, at 39° C. for 30 minutes.

CCCCCCCCCCCCCC(=O)O[C@@H]1[C@@H](C)[C@@]2(O)[C@@H](C=C(CO)C[C@]3(O)C(=O)C(C)=C[C@@H]23)[C@@H]2C(C)(C)[C@]12OC(C)=O [PMA]
Oxidative burst (RFU + SE) in 10^3: 11.235 ± 0.125 RFU in 10^3
